{"source": "patent US20200068891A1", "about": "“Synergetic Biocidal Compositions Comprising 5-Chlorine-2-Methylisothiazolin-3-One” (priority 2017, published 2020)", "key": {"[1]": {"system": "Pseudomonas putida (DSM 25068)", "experiment": "Synergy test: minimum inhibitory concentrations in microtiter plates, Pseudomonas putida in Mueller-Hinton broth", "format": "cell-based", "settings": "48 hours at 30° C.; for Synergy index Qa/QA + Qb/QB: below 1 = synergism; for Qa (CMIT): concentration of CMIT indicating an end point / Qa (CIT): concentration of CMIT indicating an end point: as sole agent (QA) where Qb is 0", "procedure": "(Pseudomonas) or 25° C. (Yarrowia).\nKull et al., Applied Microbiology, Vol. 9 (1961), p. 538.\nQA =concentration of component A as sole biocide\nQB =concentration of component B as sole biocide"}, "[2]": {"system": "Yarrowia lipolytica (DSM 32369)", "experiment": "Synergy test: minimum inhibitory concentrations in microtiter plates, Yarrowia lipolytica in Sabouraud Maltose broth", "settings": "48 hours at 25° C.; for Synergy index Qa/QA + Qb/QB: below 1 = synergism; for Qa (CMIT) / Qa (CMIT): concentration of CMIT indicating an end point: as sole agent (QA) where Qb is 0", "quoted_text": "The test organisms used were the Gram-negative bacterium Pseudomonas putida (DSM 25068) and the yeast fungus Yarrowia lipolytica (DSM 32369). For this, mixtures with different concentrations of the particular active substances were prepared and tested in regard to their effect on Pseudomonas putida and Yarrowia lipolytica. The testing was done in Milller-Hinton broth MHB (in the case of Pseudomonas) or Sabouraud Maltose broth SMB (in the case of Yarrowia) with a cell density of 10^6 germs per ml.\nThe incubation time of the microtiter plates was 48 hours at 30° C. (Pseudomonas) or 25° C. (Yarrowia). After 48 hours the batches were evaluated for turbidity due to growth and, in addition, the optical density was determined by photometry. In this way, the minimum inhibitory concentrations (MHK) were determined for the two active substances individually and in combination.\nThe resulting synergism was represented numerically by calculating the synergy index (SI). […] There, the SI is calculated by the following formula: synergy index SI =Qa/QA +Qb/QB\nQa =concentration of component A in the mixture A+B\nQb =concentration of component B in the mixture A+B\nIf the synergy index has a value over 1, this means that an antagonism is present. If the synergy index takes on the value 1, this means that an addition of the effect of the two biocides/compounds is present. If the synergy index takes on a value below 1, this means that a synergism exists for the two biocides. If the synergy index has a value of more than 1, this means that an antagonism exists."}, "[3]": {"settings": "in the mixture with CMIT, as sole agent (QB) where Qa is 0"}}}
{"compound": "O=CCCCC=O", "note": "[GDA, glutardialdehyde]", "values": [{"measurement": "Synergy index Qa/QA + Qb/QB", "setting": "[1]; CMIT and GDA", "value": 1.00}, {"measurement": "Qb (GDA): concentration of GDA indicating an end point", "setting": "[1]; [3]", "value": 500, "unit": "ppm"}]}
{"compound": "CCCCCCCCn1sccc1=O", "note": "[OIT, octylisothiazolinone]", "values": [{"measurement": "Synergy index Qa/QA + Qb/QB", "setting": "[2]; CMIT and OIT", "value": 1.00}, {"measurement": "Qb (OIT): concentration of OIT indicating an end point", "setting": "[2]; [3]", "value": 2.00, "unit": "ppm"}, {"measurement": "Synergy index Qa/QA + Qb/QB", "setting": "[1]; CMIT and OIT", "value": 1.00}, {"measurement": "Qb (OIT): concentration of OIT indicating an end point", "setting": "[1]; [3]", "value": 300, "unit": "ppm"}]}
{"compound": "COC(=O)c1ccc(O)cc1", "note": "[methylparaben]", "values": [{"measurement": "Synergy index Qa/QA + Qb/QB", "setting": "[1]; CMIT and methylparaben", "value": 1.00}, {"measurement": "Qb (methylparaben): concentration of methylparaben indicating an end point", "setting": "[1]; [3]", "value": 2000, "unit": "ppm"}]}
{"compound": "O=C(O)c1ccccc1O", "note": "[salicylic acid]", "values": [{"measurement": "Synergy index Qa/QA + Qb/QB", "setting": "[2]; CMIT and salicylic acid", "value": 1.00}, {"measurement": "Qb (salicylic acid): concentration of salicylic acid indicating an end point", "setting": "[2]; [3]", "value": 3000, "unit": "ppm"}]}
{"compound": "Cn1sc(Cl)cc1=O", "note": "[CMIT, 5-chloro-2-methylisothiazolin-3-one]", "values": [{"measurement": "Synergy index Qa/QA + Qb/QB", "setting": "[2]; CMIT and BBIT", "value": 1.00}, {"measurement": "Synergy index Qa/QA + Qb/QB", "setting": "[2]; CMIT and IPBC", "value": 1.00}, {"measurement": "Synergy index Qa/QA + Qb/QB", "setting": "[2]; CMIT and OIT", "value": 1.00}, {"measurement": "Synergy index Qa/QA + Qb/QB", "setting": "[2]; CMIT and dehydracetic acid", "value": 1.00}, {"measurement": "Synergy index Qa/QA + Qb/QB", "setting": "[2]; CMIT and salicylic acid", "value": 1.00}, {"measurement": "Synergy index Qa/QA + Qb/QB", "setting": "[2]; CMIT and sorbic acid", "value": 1.00}, {"measurement": "Qa (CMIT)", "setting": "[2]; in the mixture with BBIT", "value": 2.50, "unit": "ppm"}, {"measurement": "Qa (CMIT)", "setting": "[2]; in the mixture with IPBC", "value": 2.50, "unit": "ppm"}, {"measurement": "Qa (CMIT)", "setting": "[2]; in the mixture with OIT", "value": 2.50, "unit": "ppm"}, {"measurement": "Qa (CMIT): concentration of CMIT indicating an end point", "setting": "[2]; in the mixture with benzoic acid", "value": 2.5, "unit": "ppm"}, {"measurement": "Qa (CMIT): concentration of CMIT indicating an end point", "setting": "[2]; in the mixture with dehydracetic acid", "value": 2.5, "unit": "ppm"}, {"measurement": "Qa (CMIT): concentration of CMIT indicating an end point", "setting": "[2]; in the mixture with salicylic acid", "value": 2.5, "unit": "ppm"}, {"measurement": "Qa (CMIT): concentration of CMIT indicating an end point", "setting": "[2]; in the mixture with sorbic acid", "value": 2.5, "unit": "ppm"}, {"measurement": "Synergy index Qa/QA + Qb/QB", "setting": "[1]; CMIT and BAC", "value": 1.00}, {"measurement": "Synergy index Qa/QA + Qb/QB", "setting": "[1]; CMIT and BBIT", "value": 1.00}, {"measurement": "Synergy index Qa/QA + Qb/QB", "setting": "[1]; CMIT and DDAC", "value": 1.00}, {"measurement": "Synergy index Qa/QA + Qb/QB", "setting": "[1]; CMIT and EDDS", "value": 1.00}, {"measurement": "Synergy index Qa/QA + Qb/QB", "setting": "[1]; CMIT and GDA", "value": 1.00}, {"measurement": "Synergy index Qa/QA + Qb/QB", "setting": "[1]; CMIT and HCHO", "value": 1.00}, {"measurement": "Synergy index Qa/QA + Qb/QB", "setting": "[1]; CMIT and HEDP", "value": 1.00}, {"measurement": "Synergy index Qa/QA + Qb/QB", "setting": "[1]; CMIT and IPBC", "value": 1.00}, {"measurement": "Synergy index Qa/QA + Qb/QB", "setting": "[1]; CMIT and OIT", "value": 1.00}, {"measurement": "Synergy index Qa/QA + Qb/QB", "setting": "[1]; CMIT and PASP Na salt", "value": 1.00}, {"measurement": "Synergy index Qa/QA + Qb/QB", "setting": "[1]; CMIT and ethylparaben", "value": 1.00}, {"measurement": "Synergy index Qa/QA + Qb/QB", "setting": "[1]; CMIT and methylparaben", "value": 1.00}, {"measurement": "Synergy index Qa/QA + Qb/QB", "setting": "[1]; CMIT and phenetyl alcohol", "value": 1.00}, {"measurement": "Qa (CMIT): concentration of CMIT indicating an end point", "setting": "[1]; in the mixture with BAC", "value": 2, "unit": "ppm"}, {"measurement": "Qa (CIT): concentration of CMIT indicating an end point", "setting": "[1]; in the mixture with BBIT", "value": 2, "unit": "ppm"}, {"measurement": "Qa (CMIT): concentration of CMIT indicating an end point", "setting": "[1]; in the mixture with DDAC", "value": 2, "unit": "ppm"}, {"measurement": "Qa (CMIT): concentration of CMIT indicating an end point", "setting": "[1]; in the mixture with EDDS", "value": 2, "unit": "ppm"}, {"measurement": "Qa (CMIT): concentration of CMIT indicating an end point", "setting": "[1]; in the mixture with GDA", "value": 2, "unit": "ppm"}, {"measurement": "Qa (CMIT): concentration of CMIT indicating an end point", "setting": "[1]; in the mixture with HCHO", "value": 2, "unit": "ppm"}, {"measurement": "Qa (CMIT): concentration of CMIT indicating an end point", "setting": "[1]; in the mixture with HEDP", "value": 2, "unit": "ppm"}, {"measurement": "Qa (CIT): concentration of CMIT indicating an end point", "setting": "[1]; in the mixture with IPBC", "value": 2, "unit": "ppm"}, {"measurement": "Qa (CIT): concentration of CMIT indicating an end point", "setting": "[1]; in the mixture with OIT", "value": 2, "unit": "ppm"}, {"measurement": "Qa (CMIT): concentration of CMIT indicating an end point", "setting": "[1]; in the mixture with PASP Na salt", "value": 2, "unit": "ppm"}, {"measurement": "Qa (CMIT): concentration of CMIT indicating an end point", "setting": "[1]; in the mixture with ethylparaben", "value": 2, "unit": "ppm"}, {"measurement": "Qa (CMIT): concentration of CMIT indicating an end point", "setting": "[1]; in the mixture with methylparaben", "value": 2, "unit": "ppm"}, {"measurement": "Qa (CMIT): concentration of CMIT indicating an end point", "setting": "[1]; in the mixture with phenetyl alcohol", "value": 2, "unit": "ppm"}]}
{"compound": "C/C=C/C=C/C(=O)O", "note": "[sorbic acid]", "values": [{"measurement": "Synergy index Qa/QA + Qb/QB", "setting": "[2]; CMIT and sorbic acid", "value": 1.00}, {"measurement": "Qb (sorbic acid): concentration of sorbic acid indicating an end point", "setting": "[2]; [3]", "value": 750, "unit": "ppm"}]}
{"compound": "benzalkonium chloride [BAC]", "values": [{"measurement": "Synergy index Qa/QA + Qb/QB", "setting": "[1]; CMIT and BAC", "value": 1.00}, {"measurement": "Qb (BAC): concentration of BAC indicating an end point", "setting": "[1]; [3]", "value": 30, "unit": "ppm"}]}
{"compound": "CCOC(=O)c1ccc(O)cc1", "note": "[ethylparaben]", "values": [{"measurement": "Synergy index Qa/QA + Qb/QB", "setting": "[1]; CMIT and ethylparaben", "value": 1.00}, {"measurement": "Qb (ethylparaben): concentration of ethylparaben indicating an end point", "setting": "[1]; [3]", "value": 1500, "unit": "ppm"}]}
{"compound": "CCCCNC(=O)OCC#CI", "note": "[IPBC, 3-iodo-2-propynyl butylcarbamate]", "values": [{"measurement": "Synergy index Qa/QA + Qb/QB", "setting": "[2]; CMIT and IPBC", "value": 1.00}, {"measurement": "Qb (IPBC): concentration of IPBC indicating an end point", "setting": "[2]; [3]", "value": 2.50, "unit": "ppm"}, {"measurement": "Synergy index Qa/QA + Qb/QB", "setting": "[1]; CMIT and IPBC", "value": 1.00}, {"measurement": "Qb (IPBC): concentration of IPBC indicating an end point", "setting": "[1]; [3]", "value": 1000, "unit": "ppm"}]}
{"compound": "OCCc1ccccc1", "note": "[phenetyl alcohol]", "values": [{"measurement": "Synergy index Qa/QA + Qb/QB", "setting": "[1]; CMIT and phenetyl alcohol", "value": 1.00}, {"measurement": "Qb (phenetyl alcohol): concentration of phenetyl alcohol indicating an end point", "setting": "[1]; [3]", "value": 3000, "unit": "ppm"}]}
{"compound": "O=C(O)c1ccccc1", "note": "[benzoic acid]", "values": [{"measurement": "Qb (benzoic acid): concentration of benzoic acid indicating an end point", "setting": "[2]; [3]", "value": 2500, "unit": "ppm"}]}
{"compound": "CCCCCCCCCC[N+](C)(C)CCCCCCCCCC.[Cl-]", "note": "[DDAC, didecyldimethylammonium chloride]", "values": [{"measurement": "Synergy index Qa/QA + Qb/QB", "setting": "[1]; CMIT and DDAC", "value": 1.00}, {"measurement": "Qb (DDAC): concentration of DDAC indicating an end point", "setting": "[1]; [3]", "value": 7.5, "unit": "ppm"}]}
{"compound": "C=O", "note": "[HCHO, formaldehyde]", "values": [{"measurement": "Synergy index Qa/QA + Qb/QB", "setting": "[1]; CMIT and HCHO", "value": 1.00}, {"measurement": "Qb (HCHO): concentration of HCHO indicating an end point", "setting": "[1]; [3]", "value": 500, "unit": "ppm"}]}
{"compound": "CC(O)(P(=O)(O)O)P(=O)(O)O", "note": "[HEDP, (1-hydroxyethylidene)bis-phosphonic acid]", "values": [{"measurement": "Synergy index Qa/QA + Qb/QB", "setting": "[1]; CMIT and HEDP", "value": 1.00}, {"measurement": "Qb (HEDP): concentration of HEDP indicating an end point", "setting": "[1]; [3]", "value": 250, "unit": "ppm"}]}
{"compound": "CCCCn1sc2ccccc2c1=O", "note": "[BBIT, N-butyl-benzisothiazolinone]", "values": [{"measurement": "Synergy index Qa/QA + Qb/QB", "setting": "[2]; CMIT and BBIT", "value": 1.00}, {"measurement": "Qb (BBIT): concentration of BBIT indicating an end point", "setting": "[2]; [3]", "value": 3.00, "unit": "ppm"}, {"measurement": "Synergy index Qa/QA + Qb/QB", "setting": "[1]; CMIT and BBIT", "value": 1.00}, {"measurement": "Qb (BBIT): concentration of BBIT indicating an end point", "setting": "[1]; [3]", "value": 20, "unit": "ppm"}]}
{"compound": "CC(=O)C1C(=O)C=C(C)OC1=O", "note": "(centres unmarked) [dehydracetic acid]", "values": [{"measurement": "Synergy index Qa/QA + Qb/QB", "setting": "[2]; CMIT and dehydracetic acid", "value": 1.00}, {"measurement": "Qb (dehydracetic acid): concentration of dehydracetic acid indicating an end point", "setting": "[2]; [3]", "value": 200, "unit": "ppm"}]}
